Biological target: human α7 nAChR (Homo sapiens (Human), UniProt P36544)
Assay: Automated patch-clamp electrophysiology functional assay (Assay A)
Assay type: cell-based
Details: IonFlux HT whole-cell population patch, HEK cells expressing human α7/RIC-3, 40 μM acetylcholine
Protocol: The α7 nAChR positive allosteric modulator (PAM) activity of the present compounds may be tested using assays known in the art. The α7 nAChR PAMs described herein have activities in an automated patch-clamp electrophysiology functional assay as described in the examples. The assay was performed using the IonFlux HT in a whole-cell, population patch configuration. See Golden et al. Assay Drug Dev. Technol. (2011) 9:608-619. The compounds were assessed for their ability to modulate the function of the human α7 nAChR stably expressed in a HEK cell line both in the presence, and in the absence of the natural α7 agonist acetylcholine. By performing a series of such measurements at different concentrations, the effective concentration of the α7 nAChR PAMs (EC50) was determined. See Spencer et al. Assay Drug Dev. Technol. (2012) 10:313-324.
Direct activation of α7 (agonism), and potentiation of acetylcholine-evoked α7 currents was determined as follows:
Automated Patch-Clamp Electrophysiology Functional Assay (Assay A)
Automated patch-clamp electrophysiology was performed using the IonFluxHT (Fluxion Biosciences Inc., San Francisco, CA) in the whole-cell, population patch configuration. Test compounds were assessed for their ability to modulate the function of the α7 nicotinic acetylcholine receptor both in the presence, and in the absence of the natural α7 agonist acetylcholine. A HEK cell line stably expressing both human RIC-3 and human α7 (PrecisION hnAChR α7/RIC-3, Eurofins Pharma, St. Charles, MO) was cultured in 175 cm^2 triple-layer tissue culture flasks to no more than 90% confluency in DMEM/F-12 growth media supplemented with 10% heat-inactivated fetal bovine serum, 1% non-essential amino acids, 0.625 μg/mL Puromycin, and 400 μg/mL Geneticin. Immediately prior to assay, cells were detached by first aspirating growth media, rinsing with Dulbecco's phosphate buffered saline, and then adding 10 mL of Accutase (Innovative Cell Technologies, San Diego, CA) to the flask and then incubating at 37° C. for 5 minutes. Detached cells were then recovered by the addition of 40 mL of CHO-serum-free media supplemented with 25 mM HEPES, and rocked gently in a 50 mL conical tube for 20 minutes prior to patch-clamp assay. After recovery, cells were pelleted by centrifugation at 1,000 RPM for 1 minute in a compact bench top centrifuge; recovery media was aspirated and cells were resuspended in external recording solution (150 mM NaCl, 5 mM KCl, 2 mM CaCl2), 1 mM MgCl2, 10 mM HEPES, 12 mM dextrose) to a density of 5.0×10^6 cells/mL. The cell suspension was added to the cell inlet wells on an IonFlux HT population patch plate which had previously been rinsed and primed with deionized H2O. Test compounds were serially diluted in DMSO and then resuspended to the final test concentration in external recording solution, with, or without 40 μM acetylcholine added to the external recording solution; test compounds were then transferred to the IonFlux HT population patch plate. Internal recording solution (110 mM TrisPO4, 28 mM TrisBase, 0.1 mM CaCl2), 2 mM MgCl2, 11 mM EGTA, 4 mM MgATP) was added to the internal recording solution inlet wells on the IonFlux HT patch plate previously loaded with cells and test compounds, and the plate loaded into the IonFlux HT instrument. A protocol was executed on the IonFlux HT to trap the cells, break into the cells, and establish the whole-cell recording configuration; cells were voltage-clamped at a holding potential of −60 mV for the duration of the experiment, all experiments were conducted at room temperature, and the IonFlux HT injection pressure was 8 psi for solution applications. Upon establishing the whole-cell configuration, external recording solution was perfused into the recording chambers for 120 seconds and then 40 μM acetylcholine was applied for 1 second and immediately washed off with external recording solution for 60 seconds. […]

Chain of human α7 nAChR (P36544 23-502): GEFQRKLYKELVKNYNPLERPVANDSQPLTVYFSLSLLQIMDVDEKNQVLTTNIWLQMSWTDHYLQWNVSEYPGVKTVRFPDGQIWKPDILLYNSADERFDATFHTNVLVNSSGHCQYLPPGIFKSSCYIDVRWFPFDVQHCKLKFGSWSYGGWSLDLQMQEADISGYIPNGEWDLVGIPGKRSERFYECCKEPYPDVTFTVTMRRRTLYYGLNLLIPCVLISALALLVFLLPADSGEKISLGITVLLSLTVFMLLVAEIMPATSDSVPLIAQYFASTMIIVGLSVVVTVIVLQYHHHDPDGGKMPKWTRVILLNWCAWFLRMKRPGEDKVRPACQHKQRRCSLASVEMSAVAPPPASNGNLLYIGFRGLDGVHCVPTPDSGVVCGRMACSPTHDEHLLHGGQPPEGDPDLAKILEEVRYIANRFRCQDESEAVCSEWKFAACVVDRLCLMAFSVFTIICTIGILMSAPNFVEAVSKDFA

SMILES	EC50 (electrophysiology EC50 values) [µM]	EC50 (potency class) [µM]
O=C(NCc1cccc(I)c1)C1C2Oc3ccc(F)cc3C21 (stereo not drawn) [Example C21, exo-5-fluoro-N-[(3-iodophenyl)methyl]-1a,6b-dihydro-1H-cyclopropa[b][1]benzofuran-1-carboxamide]	2.1	0.5 to 5
O=C(NC(c1ccccc1)c1ccncc1)[C@@H]1[C@H]2Oc3ccc(F)cc3[C@H]21 (stereo partly drawn) [Example C39, 4-{[(exo-5-fluoro-1a,6b-dihydro-1H-cyclopropa[b][1]benzofuran-1-carbonyl)amino](phenyl)methyl}pyridine]		0.5 to 5
O=C(N[C@@H](CO)C1CCCCC1)C1C2COc3ccc(F)cc3C21 (stereo partly drawn) [Example 3, exo-N-[(1R)-1-Cyclohexyl-2-hydroxyethyl]-6-fluoro-1,1a,2,7b-tetrahydrocyclopropa[c][1]benzopyran-1-carboxamide]	1.7	0.5 to 5
O=C(NC1(c2ccc(F)cc2)CC1)C1C2COc3ccc(F)cc3C21 (stereo not drawn) [Example A9, exo-6-fluoro-N-[1-(4-fluorophenyl)cyclopropyl]-1,1a,2,7b-tetrahydrocyclopropa[c][1]benzopyran-1-carboxamide]	1.1	0.5 to 5
COc1cc(C2(NC(=O)C3C4COc5ccccc5C43)CCC2)ccn1 (stereo not drawn) [Example A12, exo-N-[1-(2-methoxypyridin-4-yl)cyclobutyl]-1,1a,2,7b-tetrahydrocyclopropa[c][1]benzopyran-1-carboxamide]	1.5	0.5 to 5
CC(C)(NC(=O)C1C2COc3ccc(F)cc3C21)c1cccc(Cl)c1 (stereo not drawn) [Example A18, exo-N-[2-(3-chlorophenyl)propan-2-yl]-6-fluoro-1,1a,2,7b-tetrahydrocyclopropa[c][1]benzopyran-1-carboxamide]	2.5	0.5 to 5
O=C(NC1(c2ccc(F)cc2)COC1)C1C2COc3ccc(F)cc3C21 (stereo not drawn) [Example A2, exo-6-fluoro-N-[3-(4-fluorophenyl)oxetan-3-yl]-1,1a,2,7b-tetrahydrocyclopropa[c][1]benzopyran-1-carboxamide]	1.2	0.5 to 5
COc1cc([C@@H](NC(=O)C2C3COc4ccc(F)cc4C32)C(F)(F)F)ccn1 (stereo partly drawn) [Example 4, exo-6-Fluoro-N-[(1R)-2,2,2-trifluoro-1-(2-methoxypyridin-4-yl)ethyl]-1,1a,2,7b-tetrahydrocyclopropa[c][1]benzopyran-1-carboxamide]	1.1	0.5 to 5
CCOc1ccc([C@H](COC)NC(=O)[C@@H]2[C@H]3Oc4ccnc(OC)c4[C@H]32)cc1 [Example B13, exo-N-[(1R)-1-(4-ethoxyphenyl)-2-methoxyethyl]-6-methoxy-1a,6b-dihydro-1H-cyclopropa[4,5]furo[3,2-c]pyridine-1-carboxamide]	1.1	0.5 to 5
CCOc1ccc([C@H](COC)NC(=O)C2C3Oc4c(Br)cccc4C32)cc1 (stereo partly drawn) [Example B9, exo-3-bromo-N-[(1R)-1-(4-ethoxyphenyl)-2-methoxyethyl]-1a,6b-dihydro-1H-cyclopropa[b][1]benzofuran-1-carboxamide]	0.39	0.1 to 0.5
CCOc1ccc([C@H](COC)NC(=O)C2C3Oc4ccc(F)cc4C32)cc1 (stereo partly drawn) [Example B4, exo-N-[(1R)-1-(4-ethoxyphenyl)-2-methoxyethyl]-5-fluoro-1a,6b-dihydro-1H-cyclopropa[b][1]benzofuran-1-carboxamide]	0.94	0.5 to 5
O=C(NCc1cccc(N2CCCC2)n1)C1C2Oc3ccc(F)cc3C21 (stereo not drawn) [Example C18, 2-{[(exo-5-fluoro-1a,6b-dihydro-1H-cyclopropa[b][1]benzofuran-1-carbonyl)amino]methyl}-6-(pyrrolidin-1-yl)pyridine]	1.4	0.5 to 5
CCOc1ccc([C@H](COC)NC(=O)C2C3Oc4cccc(Br)c4C32)cc1 (stereo partly drawn) [Example B18, exo-6-bromo-N-[(1R)-1-(4-ethoxyphenyl)-2-methoxyethyl]-1a,6b-dihydro-1H-cyclopropa[b][1]benzofuran-1-carboxamide]	1	0.5 to 5
CCOc1ccc([C@H](COC)NC(=O)C2C3Oc4cccc(Br)c4C32)cc1 (stereo partly drawn) [Example B19, exo-6-bromo-N-[(1R)-1-(4-ethoxyphenyl)-2-methoxyethyl]-1a,6b-dihydro-1H-cyclopropa[b][1]benzofuran-1-carboxamide]	0.072	≤ 0.1

Next, values leading:

EC50 (electrophysiology EC50 values) [µM]	EC50 (potency class) [µM]	SMILES
0.55	0.5 to 5	O=C(NCc1cc(-c2ccccc2)no1)C1C2Oc3ccc(F)cc3C21 (stereo not drawn) [Example C48, exo-5-fluoro-N-[(3-phenyl-1,2-oxazol-5-yl)methyl]-1a,6b-dihydro-1H-cyclopropa[b][1]benzofuran-1-carboxamide]
0.85	0.5 to 5	O=C(NCc1ccc(-n2cccc2)cc1)C1C2Oc3ccc(F)cc3C21 (stereo not drawn) [Example C25, exo-5-fluoro-N-{[4-(1H-pyrrol-1-yl)phenyl]methyl}-1a,6b-dihydro-1H-cyclopropa[b][1]benzofuran-1-carboxamide]
1.5	0.5 to 5	O=C(NCc1nc(-c2ccccc2)no1)C1C2Oc3ccc(F)cc3C21 (stereo not drawn) [Example C53, exo-5-fluoro-N-[(3-phenyl-1,2,4-oxadiazol-5-yl)methyl]-1a,6b-dihydro-1H-cyclopropa[b][1]benzofuran-1-carboxamide]
6.6	5 to 50	O=C(NCc1nc(Cc2ccccc2)no1)C1C2Oc3ccc(F)cc3C21 (stereo not drawn) [Example C42, exo-N-[(3-benzyl-1,2,4-oxadiazol-5-yl)methyl]-5-fluoro-1a,6b-dihydro-1H-cyclopropa[b][1]benzofuran-1-carboxamide]
0.27	0.1 to 0.5	O=C(NCc1noc(-c2ccccc2)n1)C1C2Oc3ccc(F)cc3C21 (stereo not drawn) [Example C49, exo-5-fluoro-N-[(5-phenyl-1,2,4-oxadiazol-3-yl)methyl]-1a,6b-dihydro-1H-cyclopropa[b][1]benzofuran-1-carboxamide]
1.9	0.5 to 5	CC(NC(=O)C1C2Oc3ccc(F)cc3C21)c1ccno1 (stereo not drawn) [Example C43, exo-5-fluoro-N-[1-(1,2-oxazol-5-yl)ethyl]-1a,6b-dihydro-1H-cyclopropa[b][1]benzofuran-1-carboxamide]
1.1	0.5 to 5	CCOc1ccc([C@@H](NC(=O)C2C3Oc4ccc(F)cc4C32)C(F)F)cn1 (stereo partly drawn) [Example C9, exo-N-[(1R)-1-(6-ethoxypyridin-3-yl)-2,2-difluoroethyl]-5-fluoro-1a,6b-dihydro-1H-cyclopropa[b][1]benzofuran-1-carboxamide]
0.81	0.5 to 5	COc1ccc2c(c1)OCC2NC(=O)C1C2Oc3ccc(F)cc3C21 (stereo not drawn) [Example C8, exo-5-fluoro-N-(6-methoxy-2,3-dihydro-1-benzofuran-3-yl)-1a,6b-dihydro-1H-cyclopropa[b][1]benzofuran-1-carboxamide]
0.6	0.5 to 5	O=C(NCc1cc(C(F)F)nc(C(F)F)c1)C1C2Oc3ccc(F)cc3C21 (stereo not drawn) [Example C19, exo-N-{[2,6-bis(difluoromethyl)pyridin-4-yl]methyl}-5-fluoro-1a,6b-dihydro-1H-cyclopropa[b][1]benzofuran-1-carboxamide]
5.6	5 to 50	CCOc1ccc(C2(NC(=O)C3C4Oc5ccc(F)cc5C43)CCC2)cn1 (stereo not drawn) [Example C3, exo-N-[1-(6-ethoxypyridin-3-yl)cyclobutyl]-5-fluoro-1a,6b-dihydro-1H-cyclopropa[b][1]benzofuran-1-carboxamide]

— patent publication US20240368109A1, “ALLOSTERIC MODULATORS OF NICOTINIC ACETYLCHOLINE RECEPTORS” (MERCK SHARP & DOHME LLC, priority 2021, published 2024)
